Our source for the TGI values is PubChem BioAssay (NCI).

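Interpolation was linear, between the two tested concentrations surrounding the appropriate level; five concentrations were tested over 48 hours in 96-well plates. TGI is the concentration that stops growth completely.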

Common to all, as to experiment: NCI-60 cell line screen, 48 h
The test system of test [1] is RXF 393 renal.
The test system of test [2] is HS 578T breast.
In test [3] the test system is EKVX NSCLC.
Test [4] relates to PC-3 prostate.
For test [5], the system named is SN12C renal.
Test [6] deals with NCI-H522 lung.
For test [7], the system named is MDA-MB-435.
In test [8] the test system is SK-MEL-28 melanoma.
In test [9] the test system is MDA-N.
Test [10] has as its system UACC-257 melanoma.

Turning to `COC(=O)[C@H](Cc1ccccc1)NC(=O)N(CCC#N)CCCCN(CCC#N)C(=O)N[C@@H](Cc1ccccc1)C(=O)OC`, the TGI in test [1], in test [2], in test [3], in [4], in test [5] and in [6] was greater than 100 µM throughout. Also, the TGI in [7], in test [8], in test [9] and in test [10] was greater than 100 µM in each case.
In the case of `N#CCCN(CCC#N)c1ccc(C(N=Nc2ccc(Cl)cc2)=Nc2ccccc2)cc1`, the TGI in test [1] was 30.8 µM; in test [2], 35 µM; in test [3] it was 24.4 µM; in [4], 25.5 µM; in test [5], 33.5 µM; in test [6] it was 30.4 µM. For the same compound, the TGI in test [7] stood at 27.5 µM; in test [8], 30 µM; in [9], 22.8 µM; in [10], 20.8 µM.
As for `Cc1cccc(NC(=O)O/N=C(\Cl)C(C)C)c1`, the TGI in test [1] turned out to be 26.9 µM; in [2], 63.7 µM; in [3] it was 11.1 µM; in [4], 30.9 µM; in test [5], 10.3 µM; in test [6], 2.99 µM. The TGI in test [7] is 31.7 µM; in test [8], 26.7 µM; in test [9], 25 µM; in test [10] it was 31.5 µM.
For `O=C1CCC(=O)N1CNc1ccc2c(c1)S(=O)(=O)c1ccccc1O2`, the TGI in test [1], in test [2], in test [3], in test [4], in test [5] and in [6] was greater than 100 µM throughout. Besides, the TGI in [7], in test [8], in test [9] and in test [10] was greater than 100 µM throughout.
With `Cc1ccc(/C=C2/N=C(N/N=C\C(O)C(O)C(O)CO)NC2=O)cc1` (stereo not given), the TGI in test [1], in test [2], in test [3], in test [4], in test [5] and in test [6] was greater than 100 µM each time. For the same compound, the TGI in [7], in [8], in test [9] and in [10] was greater than 100 µM throughout.
On to `CC(C)=Cc1cc(C)c2c3c(c(O)c(O)c(C)c13)C(C)=CC2=O`, for which the TGI in test [2] was 74.4 µM; in test [4] it was greater than 100 µM; in test [5], greater than 100 µM; in [6] it was 41.2 µM; in test [7], 55.1 µM; in test [9], greater than 100 µM. The compound further registered a TGI in test [10] greater than 100 µM.
For the compound `O=C(CC(O)(C(F)(F)F)C(F)(F)Cl)CC(O)(C(F)(F)F)C(F)(F)Cl` (stereo not given), the TGI is 6.58 µM in test [1]; 6.69 µM in test [2]; greater than 10 µM in test [3]; 7.37 µM in test [4]; 9.8 µM in test [5]; 8.78 µM in test [6]. Besides, the TGI is greater than 10 µM in test [7], greater than 10 µM in test [8], greater than 10 µM in test [9] and 4.59 µM in test [10].
For `Cc1ccc(S(=O)(=O)N2CCCSCCSCCCN(S(=O)(=O)c3ccc(C)cc3)CC2)cc1`, the TGI in test [1], in test [2], in [3], in test [5], in [7] and in test [8] was greater than 100 µM in each case. Besides, the TGI in test [9] and in test [10] was greater than 100 µM in each case.
As to `O=S(=O)(O)c1cc(S(=O)(=O)O)c2cc(N=Nc3c(O)ccc4ccccc34)ccc2c1`, the TGI in test [1], in test [2], in [3], in test [4], in test [5] and in test [6] was greater than 100 µM each time. Also, the TGI in [7], in [8], in [9] and in test [10] was greater than 100 µM throughout.
For `CC1C2CCC3C(O)C2(CC(O)C2(O)C1CC(O)C2(C)C)CC3(C)O` (stereo not given), the TGI in test [2], in [3], in test [4], in test [5], in test [6] and in test [7] was greater than 100 µM throughout. Moreover, the TGI in [8], in [9] and in test [10] was greater than 100 µM each time.
Take `c1ccc2c(c1)nc1n2CSCC1`: the TGI in test [1], in [2], in [3], in [4], in test [5] and in [7] was greater than 100 µM each time. Further, the TGI in test [8], in [9] and in test [10] was greater than 100 µM throughout.
Consider `COC(=O)CCC1=NCC(C)(C)O1`, for which the TGI in [1], in test [2], in [3], in test [4], in [5] and in test [6] was greater than 10 µM each time. For the same compound, the TGI in [7], in test [8], in [9] and in test [10] was greater than 10 µM each time.
Turning to `O=C1c2c(Br)sc(Br)c2[C@@H](Cl)[C@H]1Cl`, the TGI in test [1] was 30.7 µM; in test [2] it was greater than 100 µM; in test [3], 46.6 µM; in [4], 38.9 µM; in test [5], 36.7 µM; in test [6], 10.9 µM. Further, the TGI in test [7] was 43.8 µM; in [8] it was 59.3 µM; in [9], 40.3 µM; in test [10], 30.9 µM.
For the compound `O=c1[nH]nc(-c2ccccc2)n1/N=C/c1ccco1`, the TGI in [1], in [2], in [3], in [4], in [5] and in test [6] was greater than 100 µM in each case. Besides, the TGI in test [7], in test [8], in test [9] and in [10] was greater than 100 µM each time.
`CN(C)CCCNc1ccc2nnn3c4ccc(OC(=O)c5ccccc5)cc4c(=O)c1c23`: the TGI in [1] was 12.8 µM; in [2] it was 36.6 µM; in [3], 20.2 µM; in [4], 23.8 µM; in test [5], 25.4 µM; in [6], 10.5 µM. In addition, the TGI was 19.1 µM in [7], 30.2 µM in [8], 30.1 µM in test [9] and 34.3 µM in test [10].
On to `Cn1c(=O)c2sc3c4sc5c(=O)n(C)c6ccccc6c5c4sc3c2c2ccccc21`, for which the TGI is 97.6 µM in test [1]; greater than 100 µM in test [2]; greater than 100 µM in [3]; greater than 100 µM in [4]; greater than 100 µM in test [5]; greater than 100 µM in [6]. The TGI in [7], in test [8], in test [9] and in test [10] was greater than 100 µM in each case.
For the compound `CC(=O)N1c2ccccc2C2=NN(C)C(=N)SC21` (stereo not given), the TGI in test [2], in test [3], in test [4], in [5], in [6] and in [7] was greater than 100 µM in each case. For the same compound, the TGI in [8], in test [9] and in test [10] was greater than 100 µM in each case.
Take `Cn1nc2ccc([N+](=O)[O-])cc2[n+]1[O-]`: the TGI in [1], in test [2], in [3], in test [4], in [5] and in [6] was greater than 100 µM in each case. Also, the TGI in test [7], in test [9] and in [10] was greater than 100 µM in each case.
Turning to `COc1cc2oc(=O)cc(C)c2c(OC)c1O`, the TGI is 65 µM in [2]; greater than 100 µM in test [3]; greater than 100 µM in [4]; greater than 100 µM in test [5]; greater than 100 µM in [7]; greater than 100 µM in test [8]. The TGI in test [9] and in [10] was greater than 100 µM in each case.
`Cc1cc(C)c2c(n1)S(=O)(=O)N(CCCN1CCN(c3cccc(Cl)c3)CC1)/C(=C(\O)c1ccccc1)C2=O`: the TGI is greater than 100 µM in test [2]; 82.7 µM in test [3]; greater than 100 µM in [4]; 93.4 µM in test [5]; greater than 100 µM in test [6]; greater than 100 µM in [7]. For the same compound, the figures for the TGI in test [8], in test [9] and in test [10] were greater than 100 µM, greater than 100 µM and 55.4 µM, respectively.
Regarding `CC(=O)NC1C(OC(C)C(=O)NC(C(=O)NC(CCC(=O)NCCCNC2c3ccccc3Nc3cccc([N+](=O)[O-])c32)C(N)=O)C(C)C)C(O)C(CO)OC1(C)OCc1ccccc1` (stereo not given), the TGI in test [1] was found to be 2.13 µM; in [2], 4.75 µM; in test [3], 3.43 µM; in test [4] it was 3.33 µM; in test [5], 3.82 µM; in test [6], 2.37 µM. For the same compound, the TGI in test [7] was 2.77 µM; in test [9], 4.78 µM; in [10], 5.14 µM.
As to `CN1CC(c2ccccc2)C(O)(C2(c3ccccc3)CN(C)CC(c3ccccc3)C2=O)C(c2ccccc2)C1` (stereo not given), the TGI in [2] was 94.2 µM; in test [3], greater than 100 µM; in [4], greater than 100 µM; in test [5], greater than 100 µM; in test [6], greater than 100 µM; in [7], greater than 100 µM. For the same compound, the TGI in [8], in test [9] and in test [10] was greater than 100 µM each time.
As to `C=C1CCCC(C)(C)[C@H]1C/C=C1\CCOC1=O`, the TGI in [2] was 44.3 µM; in [3] it was 30 µM; in [4] it was 31.5 µM; in test [5], 35.2 µM; in test [6] it was 40.4 µM; in [7], 22 µM. The TGI in test [8] was determined as 29.6 µM; in test [9], 33.3 µM; in test [10] it was 24.5 µM.
As for `N#Cc1cc2c(cc1C#N)/C(=N\c1cccc(N)n1)N=C2Nc1cccc(N)n1`, the TGI in test [2] is greater than 100 µM; in [3], greater than 100 µM; in test [4] it was greater than 100 µM; in [5] it was greater than 100 µM; in test [6], 22.6 µM; in test [7], 59.7 µM. Besides, the TGI in test [8] was 48.7 µM; in test [9] it was 59.6 µM; in test [10], greater than 100 µM.
For `O=C1c2c(ccc3c2CCC3)CC1Cc1ccc2c(c1)CCC2` (stereo not given), the TGI was 69.1 µM in [1]; 61.6 µM in [2]; greater than 100 µM in [3]; greater than 100 µM in [5]; 92.4 µM in test [7]; greater than 100 µM in test [8]. The TGI in test [9] was greater than 100 µM; in test [10] it was 61.9 µM.
As to `Cc1c2n(c3ccccc13)S(=O)(=O)c1ccccc1-2`, the TGI in [2] is 54.8 µM; in test [3] it was 35.6 µM; in [4], 61.3 µM; in test [6] it was greater than 100 µM; in test [7], greater than 100 µM; in test [8], greater than 100 µM. The TGI in test [9] and in test [10] was greater than 100 µM in each case.
For `CC(=O)OC1OC(c2ccoc2)C[C@@]12C1CCC3O[C@]3(C)[C@]1(C)[C@H](OC(C)=O)[C@H](OC(C)=O)[C@H]2C` (stereo not given in full), the TGI in test [1], in test [2], in test [3], in [4], in test [5] and in [8] was greater than 37.5 µM throughout. The TGI in test [9] and in test [10] was greater than 37.5 µM in each case.
In the case of `CO/N=C(/C)c1cccc(Nc2nc3ccc(Cl)cc3c3[nH]c4ccccc4c23)c1`, the TGI turned out to be 6.92 µM in test [1]; 45.8 µM in test [2]; 32.6 µM in test [4]; 25.9 µM in [5]; 13.4 µM in test [6]; 21.4 µM in test [7]. The values for the TGI in test [9] and in test [10] were 24.3 µM and 29.1 µM, respectively.
With `O/N=C(/C(Cl)=C(Cl)Cl)C(Cl)Cl`, the TGI in [1] is 30.5 µM; in test [2], 61.3 µM; in [3], greater than 100 µM; in [4], 33.9 µM; in [5], 34.1 µM; in [7], 33.1 µM. Also, the TGI in [8] was found to be 30.2 µM; in test [9] it was 32.8 µM; in test [10], 40.6 µM.
